{
  "source": "paper PMC10449633",
  "about": "(Nature Chemical Biology, 2023)",
  "molecular_target": "T1, Sec61 (Homo sapiens, UniProt P61619)",
  "T1 construct": "endogenous in cells",
  "T1 sequence (P61619 whole entry)": "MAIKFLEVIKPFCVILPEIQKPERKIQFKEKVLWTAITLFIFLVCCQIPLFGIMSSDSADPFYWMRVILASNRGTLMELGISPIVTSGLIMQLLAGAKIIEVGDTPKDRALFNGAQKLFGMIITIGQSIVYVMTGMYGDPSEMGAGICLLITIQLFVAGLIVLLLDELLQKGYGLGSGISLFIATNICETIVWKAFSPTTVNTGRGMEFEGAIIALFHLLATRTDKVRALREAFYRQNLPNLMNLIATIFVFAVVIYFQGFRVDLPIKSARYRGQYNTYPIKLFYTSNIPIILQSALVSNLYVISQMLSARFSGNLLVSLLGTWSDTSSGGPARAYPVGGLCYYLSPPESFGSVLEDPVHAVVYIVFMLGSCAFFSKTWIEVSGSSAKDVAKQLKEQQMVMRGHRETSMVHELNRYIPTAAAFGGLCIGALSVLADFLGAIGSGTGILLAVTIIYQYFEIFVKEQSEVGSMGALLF",
  "T1 sequence (P60059 whole entry, further chain)": "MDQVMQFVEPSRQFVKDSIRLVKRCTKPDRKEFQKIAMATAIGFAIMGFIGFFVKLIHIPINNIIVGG",
  "T1 sequence (P60468 whole entry, further chain)": "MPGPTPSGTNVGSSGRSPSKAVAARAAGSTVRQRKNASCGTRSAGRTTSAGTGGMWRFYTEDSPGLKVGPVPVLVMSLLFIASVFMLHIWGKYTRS",
  "test": "signal peptide-GLuc (SP-GLuc) reporter panel, 89 constructs",
  "type": "cell-based",
  "description": "The heat map depicts IC50 values calculated from each SP-GLuc dose–response curve. d, Arthritis was induced in BALB/c mice with antibodies specific for type II collagen (mAb) on day 0 and endotoxin on day 3. On day 4, when the disease was present in all animals, mice were randomized and treated for 2 weeks with thrice weekly (QODx3) or weekly (QW) intravenous administration of vehicle or KZR-8445 or intraperitoneal administration of dexamethasone. Clinical scores (0–4 per paw; n = 10 per group) and body weights were followed until day 14. Data are presented as mean values ± s.d. mAb, monoclonal antibody. Source data\nTo investigate the effects of KZR-8445 on secretory and membrane protein biogenesis and to establish Sec61α as the relevant target, we quantified the secretion of a doxycycline-inducible Gaussia luciferase (GLuc) reporter fused to the C-terminus of two full-length pro-inflammatory cytokines, interleukin-2 (IL-2) (which contains a cleavable signal peptide) and tumor necrosis factor-alpha (TNFα) (which contains an N-terminal transmembrane anchor). […] KZR-8445 is structurally related to CT8, which discriminates among Sec61 clients based largely on their N-terminal signal peptide. […] We also directly compared KZR-8445 to mycolactone A/B, a structurally distinct and relatively client-nonselective Sec61 inhibitor[8],[25], for their ability to discriminate between vascular cell adhesion molecule (VCAM) and preprolactin (pPL) signal peptides.",
  "note": "Like-named read-outs stand apart in the source and are kept apart here. Numbered stars: 1 amine (or outer) side, 2 acyl side, 3 side chain; on linkers, the order of the positions; unused ones are H or OH. Square brackets hold non-standard residues; d marks the D form. Peptide text beside a SMILES is read from it. ξ: configuration not given here. X1 = CN(C(Cc1cn(Cc2ccc(Br)cc2)c2ccccc12)C(=O)[*:2])[*:1]; ξAla(CF3) = NC(CC(F)(F)F)C(=O)O; X2 = N#CCCC(O[*:1])C(=O)[*:2]; NMeL = CN[CH](CC(C)C)C(=O)O; NMeA = CN[CH](C)C(=O)O",
  "data": [
    {"smiles": "CC(C)CC1NC(=O)C(Cc2cn(Cc3ccc(Br)cc3)c3ccccc23)N(C)C(=O)C(CC(F)(F)F)NC(=O)C(CC(C)C)N(C)C(=O)C(CC(F)(F)F)NC(=O)C(CCC#N)OC(=O)C(C)N(C)C1=O", "note": "(centres unmarked) [KZR-8445] (cyclo([X1]L[NMeA][X2][ξAla(CF3)][NMeL][ξAla(CF3)]); configuration not given here)", "values": [
      {"measurement": "IC50", "setting": "89 signal peptide-GLuc reporters, 24 h, read-out: highest IC50 in the panel", "result": "> 25000", "unit": "nM"},
      {"measurement": "IC50", "setting": "89 signal peptide-GLuc reporters, 24 h, read-out: lowest IC50 in the panel", "result": 5, "unit": "nM"},
      {"measurement": "IC50", "setting": "89 signal peptide-GLuc reporters, 24 h, read-out: median IC50 of the panel", "result": 366, "unit": "nM"},
      {"measurement": "IC50", "setting": "ADPGK SP-GLuc, read-out: log10(IC50 8445) (converted)", "result": 540, "unit": "nM"},
      {"measurement": "IC50", "setting": "ANGPTL3 SP-GLuc, read-out: log10(IC50 8445) (converted)", "result": 49.4, "unit": "nM"},
      {"measurement": "IC50", "setting": "APOC1 SP-GLuc, read-out: log10(IC50 8445) (converted)", "result": 135, "unit": "nM"},
      {"measurement": "IC50", "setting": "APP SP-GLuc, read-out: log10(IC50 8445) (converted)", "result": 449, "unit": "nM"},
      {"measurement": "IC50", "setting": "AXL SP-GLuc, read-out: log10(IC50 8445) (converted)", "result": 13.8, "unit": "nM"},
      {"measurement": "IC50", "setting": "BCAN SP-GLuc, read-out: log10(IC50 8445) (converted)", "result": 142, "unit": "nM"},
      {"measurement": "IC50", "setting": "C1S SP-GLuc, read-out: log10(IC50 8445) (converted)", "result": 383, "unit": "nM"},
      {"measurement": "IC50", "setting": "CALCA SP-GLuc, read-out: log10(IC50 8445) (converted)", "result": 721, "unit": "nM"},
      {"measurement": "IC50", "setting": "CALCB SP-GLuc, read-out: log10(IC50 8445) (converted)", "result": 972, "unit": "nM"},
      {"measurement": "IC50", "setting": "CD40 SP-GLuc, read-out: log10(IC50 8445) (converted)", "result": 11300, "unit": "nM"},
      {"measurement": "IC50", "setting": "CD47 SP-GLuc, read-out: log10(IC50 8445) (converted)", "result": 373, "unit": "nM"},
      {"measurement": "IC50", "setting": "CD96 SP-GLuc, read-out: log10(IC50 8445) (converted)", "result": 29.2, "unit": "nM"},
      {"measurement": "IC50", "setting": "CD274 SP-GLuc, read-out: log10(IC50 8445) (converted)", "result": 93.3, "unit": "nM"},
      {"measurement": "IC50", "setting": "CDH1 SP-GLuc, read-out: log10(IC50 8445) (converted)", "result": 811, "unit": "nM"},
      {"measurement": "IC50", "setting": "CDH2 SP-GLuc, read-out: log10(IC50 8445) (converted)", "result": 15.5, "unit": "nM"},
      {"measurement": "IC50", "setting": "CDH5 SP-GLuc, read-out: log10(IC50 8445) (converted)", "result": 76, "unit": "nM"},
      {"measurement": "IC50", "setting": "CNPY2 SP-GLuc, read-out: log10(IC50 8445) (converted)", "result": 394, "unit": "nM"},
      {"measurement": "IC50", "setting": "CPD SP-GLuc, read-out: log10(IC50 8445) (converted)", "result": 694, "unit": "nM"},
      {"measurement": "IC50", "setting": "CR1L SP-GLuc, read-out: log10(IC50 8445) (converted)", "result": 61.3, "unit": "nM"},
      {"measurement": "IC50", "setting": "CSF2RB SP-GLuc, read-out: log10(IC50 8445) (converted)", "result": 652, "unit": "nM"},
      {"measurement": "IC50", "setting": "CTLA4 SP-GLuc, read-out: log10(IC50 8445) (converted)", "result": 343, "unit": "nM"},
      {"measurement": "IC50", "setting": "DDRGK1 SP-GLuc, read-out: log10(IC50 8445) (converted)", "result": 1850, "unit": "nM"},
      {"measurement": "IC50", "setting": "DMKN SP-GLuc, read-out: log10(IC50 8445) (converted)", "result": 2630, "unit": "nM"},
      {"measurement": "IC50", "setting": "DNAJB11 SP-GLuc, read-out: log10(IC50 8445) (converted)", "result": 4360, "unit": "nM"},
      {"measurement": "IC50", "setting": "ERBB2 SP-GLuc, read-out: log10(IC50 8445) (converted)", "result": 536, "unit": "nM"},
      {"measurement": "IC50", "setting": "F3 SP-GLuc, read-out: log10(IC50 8445) (converted)", "result": 162, "unit": "nM"},
      {"measurement": "IC50", "setting": "FGF23 SP-GLuc, read-out: log10(IC50 8445) (converted)", "result": 28.2, "unit": "nM"},
      {"measurement": "IC50", "setting": "FLT3 SP-GLuc, read-out: log10(IC50 8445) (converted)", "result": 360, "unit": "nM"},
      {"measurement": "IC50", "setting": "FNDC10 SP-GLuc, read-out: log10(IC50 8445) (converted)", "result": 726, "unit": "nM"},
      {"measurement": "IC50", "setting": "FURIN SP-GLuc, read-out: log10(IC50 8445) (converted)", "result": 4740, "unit": "nM"},
      {"measurement": "IC50", "setting": "GAS6 SP-GLuc, read-out: log10(IC50 8445) (converted)", "result": 118, "unit": "nM"},
      {"measurement": "IC50", "setting": "HJV SP-GLuc, read-out: log10(IC50 8445) (converted)", "result": 427, "unit": "nM"},
      {"measurement": "IC50", "setting": "HLA-G SP-GLuc, read-out: log10(IC50 8445) (converted)", "result": 39.2, "unit": "nM"},
      {"measurement": "IC50", "setting": "HSPA13 SP-GLuc, read-out: log10(IC50 8445) (converted)", "result": 1110, "unit": "nM"},
      {"measurement": "IC50", "setting": "IGF1R SP-GLuc, read-out: log10(IC50 8445) (converted)", "result": 814, "unit": "nM"},
      {"measurement": "IC50", "setting": "IL1RAP SP-GLuc, read-out: log10(IC50 8445) (converted)", "result": 101, "unit": "nM"},
      {"measurement": "IC50", "setting": "IL4R SP-GLuc, read-out: log10(IC50 8445) (converted)", "result": 32, "unit": "nM"},
      {"measurement": "IC50", "setting": "IL4 SP-GLuc, read-out: log10(IC50 8445) (converted)", "result": 359, "unit": "nM"},
      {"measurement": "IC50", "setting": "IL5RA SP-GLuc, read-out: log10(IC50 8445) (converted)", "result": 1310, "unit": "nM"},
      {"measurement": "IC50", "setting": "IL5 SP-GLuc, read-out: log10(IC50 8445) (converted)", "result": 1300, "unit": "nM"},
      {"measurement": "IC50", "setting": "IL6R SP-GLuc, read-out: log10(IC50 8445) (converted)", "result": 92.3, "unit": "nM"},
      {"measurement": "IC50", "setting": "IL6 SP-GLuc, read-out: log10(IC50 8445) (converted)", "result": 155, "unit": "nM"},
      {"measurement": "IC50", "setting": "IL6ST SP-GLuc, read-out: log10(IC50 8445) (converted)", "result": 56.5, "unit": "nM"},
      {"measurement": "IC50", "setting": "IL7 SP-GLuc, read-out: log10(IC50 8445) (converted)", "result": 5.23, "unit": "nM"},
      {"measurement": "IC50", "setting": "IL10 SP-GLuc, read-out: log10(IC50 8445) (converted)", "result": 434, "unit": "nM"},
      {"measurement": "IC50", "setting": "IL11 SP-GLuc, read-out: log10(IC50 8445) (converted)", "result": 183, "unit": "nM"},
      {"measurement": "IC50", "setting": "IL12B SP-GLuc, read-out: log10(IC50 8445) (converted)", "result": 109, "unit": "nM"},
      {"measurement": "IC50", "setting": "IL12RB1 SP-GLuc, read-out: log10(IC50 8445) (converted)", "result": 64.4, "unit": "nM"},
      {"measurement": "IC50", "setting": "IL13 SP-GLuc, read-out: log10(IC50 8445) (converted)", "result": 59.1, "unit": "nM"},
      {"measurement": "IC50", "setting": "IL15RA SP-GLuc, read-out: log10(IC50 8445) (converted)", "result": 294, "unit": "nM"}
    ]}
  ]
}
